Laboratory results as given in PMC8080595, “Discovery of a novel RORγ antagonist with skin-restricted exposure for topical treatment of mild to moderate psoriasis” (Scientific Reports, 2021).

Key:
[1] = target: T1, RORα (Homo sapiens, UniProt P35398); experiment: RORα luciferase reporter assay; type: cell-based; details: up to 10,000 nM, n = 3
T1 sequence (P35398 272-523 limits assumed): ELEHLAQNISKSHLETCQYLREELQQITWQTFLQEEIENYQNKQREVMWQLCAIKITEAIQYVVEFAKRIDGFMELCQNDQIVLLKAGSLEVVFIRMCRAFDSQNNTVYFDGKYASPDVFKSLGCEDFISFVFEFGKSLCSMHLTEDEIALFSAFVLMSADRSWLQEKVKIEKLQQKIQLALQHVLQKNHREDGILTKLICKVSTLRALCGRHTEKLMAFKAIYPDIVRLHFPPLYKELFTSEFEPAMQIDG
Method: We next assessed the selectivity of SHR168442 against another ROR family member, RORα, using nuclear reporter assay. […] ATRA (all trans-retinoic acid) was used as a positive control in the assay.
Cell-based luciferase reporter assays for RORα and RORγ (Indigo Biosciences) were performed according to the manufacturer’s protocol.

[2] = target: T2, RORγ LBD (Homo sapiens, UniProt P51449); experiment: LanthaScreen TR-FRET human RORγ coactivator assay; type: biochemical; details: antagonist mode, read-out: Binding of RORγ LBD, IC50
T2 construct: The assay was performed with GST-tag RORγ LBD (25 ng/reaction, Creative Biomart); purchased Creative Biomart
T2 sequence (P51449 269-508 limits assumed): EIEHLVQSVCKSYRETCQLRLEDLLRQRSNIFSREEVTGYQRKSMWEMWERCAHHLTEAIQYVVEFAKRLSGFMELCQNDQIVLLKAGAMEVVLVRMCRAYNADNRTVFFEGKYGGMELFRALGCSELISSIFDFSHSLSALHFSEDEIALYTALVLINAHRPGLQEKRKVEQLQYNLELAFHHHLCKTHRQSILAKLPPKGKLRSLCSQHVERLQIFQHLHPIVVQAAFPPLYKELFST
Excerpt: In LanthaScreen TR-FRET RORγ coactivator assay, the RORγ LBD was constitutively active and the coactivator peptide (fluorescein-D22) was recruited in the absence of ligand, or compound (Fig. 2a). The binding of an antagonist to RORγ LBD causes a conformational change of the receptor, leading to a decrease in the affinity of the receptor for the coactivator peptide. The separation of the fluorescently labeled coactivator peptide from RORγ LBD from the receptor with the terbium-labeled antibody causes a decrease in the TR-FRET signal compared to those without compound. The assay was validated by detecting the ligand-independent recruitment of coactivator peptide in the presence or absence of RORγ LBD (2.5- to 3-fold assay window). Effects of the key compounds of the novel chemotype in Fig. 1, were tested in LanthaScreen TR-FRET RORγ coactivator assay.
The assay was performed with GST-tag RORγ LBD (25 ng/reaction, Creative Biomart), 0.6 μM Fluorescein-D22 coactivator peptide and 8 nM Tb anti-GST antibody (Invitrogen) at room temperature for 60 minutes. The fluorescent signals were measured with 520 nm emission and 495 nm excitation on Tecan Infinite. The data were calculated using DMSO control as 0% inhibition and non-protein control as 100% inhibition. IC50 values were calculated using non-linear regression analysis of GraphPad Prism in all assays.

CCS(=O)(=O)c1ccc([C@H](CCO)c2nc3c(Cl)c(N4CCC(F)(F)CC4)c(Cl)cc3[nH]2)cc1 [SHR168442, (S)-3-(4,6-dichloro-5-(4,4-difluoropiperidin-1-yl)-1H-benzo[d]imidazol-2-yl)-3-(4-(ethylsulfonyl)phenyl)propan-1-ol]
effect on RORα reporter activity [1]: little effect
IC50 [2]: 35 ± 9 nM
